Test results taken from US10118942B2, “Toll-like receptor 2 ligands and methods of making and using thereof” (H. LEE MOFFITT CANCER CENTER AND RESEARCH INSTITUTE, INC., priority 2015, dated 2018).
pEC50, pIC50, pKi: −log10 of the molar value. “Also recorded” adds a separate entry of the source. Where two headings read alike, the source gives them in different places. One block for each compound: values may come before it.

Columns and labels:
TLR2 [1] = molecular target: T1, TLR2 (Homo sapiens, UniProt O60603); experiment: In vitro TLR2 functional bioassay (NF-κB luciferase reporter); format: cell-based; conditions: HEK-293/hTLR2 cells; for agonist activity compared to TLR2 agonist controls (Pam2CSK4, Pam3CSK4, HKLM): all at 1 μg/mL
Procedure: The in vitro TLR2 functional bioassay was developed and optimized for use in high-throughput screening of soluble compound libraries to identify both TLR2 agonists and antagonists. The bioassay measures the induction of NF-κB signaling via TLR2 in HEK-293/hTLR2 cells (Invivogen) and parental HEK-293 cells as a negative control. Cells were seeded at a density of 40,000 per well using a WellMate microplate dispenser (Thermo Fisher Scientific/Matrix) in black 96-well plates with opaque white wells (PerkinElmer, Waltham, Mass.) and then incubated at 37° C. On day 2, the cells were transiently transfected with pNifty-Luc(InvivoGen, San Diego, Calif.), an NF-κB inducible reporter plasmid expressing the luciferase reporter gene (Schindler et al., Three NF-kappa B binding sites in the human E-selectin gene required for maximal tumor necrosis factor alpha-induced expression. Mol Cell Biol 1994, 14(9):5820-31) using an optimized 4:1 ratio by volume of FugeneHD transfection reagent (Promega, Madison, Wis.) to pNifty-Luc plasmid DNA (1 μg/mL). On day 3, the cells were stimulated with either test peptides or controls adjusted to a final concentration of 1 μg/mL using a NanoDrop spectrophotometer, ND1000 (Thermo Fisher Scientific). Synthetic di- and triacylated LP ligands, Pam2CSK4 and Pam3CSK4 (InvivoGen), were used as positive controls. TNF-α (InvivoGen) was also used as a transfection control that induces NF-κB independently of TLR2. On day 4 after 24 h of peptide stimulation, luciferase induced activity by the induction of NF-κB was measured. The medium was aspirated from the wells using an ELx405 SelectCW plate washer (BioTek, Winooski, Vt.), and 150 μg/mL D-luciferin (Gold Biotechnology, St. Louis, Mo.) was dispensed using the microplate dispensor. The plates were incubated at 37° C. for 5 min. The luminescence intensity was measured using the standard luminescence protocol on a Victor X4 multilabel plate reader equipped with a plate stacker for readout of multiple plates at a time (PerkinElmer, Waltham, Mass.). For each in vitro TLR2 bioassay, at least three different experiments were performed in triplicate (n≥3). Data were analyzed with GraphPad Prism software, and curves were generated with the appropriate nonlinear fit regression analysis.
Target sequence in this assay (O60603 21-784): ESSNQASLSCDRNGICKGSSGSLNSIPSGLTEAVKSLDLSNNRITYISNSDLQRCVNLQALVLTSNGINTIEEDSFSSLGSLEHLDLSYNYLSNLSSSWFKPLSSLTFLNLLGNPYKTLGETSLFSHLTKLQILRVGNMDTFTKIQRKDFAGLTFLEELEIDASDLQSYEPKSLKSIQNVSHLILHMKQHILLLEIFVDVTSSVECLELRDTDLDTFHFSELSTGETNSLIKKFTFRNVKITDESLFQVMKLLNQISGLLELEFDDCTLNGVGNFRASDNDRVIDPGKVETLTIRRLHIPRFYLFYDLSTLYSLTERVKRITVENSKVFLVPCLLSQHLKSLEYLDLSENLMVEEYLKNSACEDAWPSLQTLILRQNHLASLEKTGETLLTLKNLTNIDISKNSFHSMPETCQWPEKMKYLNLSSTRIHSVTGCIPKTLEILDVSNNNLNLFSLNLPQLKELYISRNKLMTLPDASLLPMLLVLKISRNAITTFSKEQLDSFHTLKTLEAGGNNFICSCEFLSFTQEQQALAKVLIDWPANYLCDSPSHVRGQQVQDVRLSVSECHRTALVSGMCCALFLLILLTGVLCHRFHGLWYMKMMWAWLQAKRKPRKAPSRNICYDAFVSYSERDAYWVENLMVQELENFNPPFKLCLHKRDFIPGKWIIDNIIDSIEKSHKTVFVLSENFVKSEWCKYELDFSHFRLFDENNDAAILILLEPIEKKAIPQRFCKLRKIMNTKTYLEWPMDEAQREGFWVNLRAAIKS

TLR2 [2] = molecular target: T1, TLR2; experiment: In cyto Europium TRF competition binding assay; design: SU.86.86 pancreatic cells with endogenous expression of TLR2 were used for the assay; host or cells: SU.86.86 pancreatic adenocarcinoma cells; conditions: competition with 90 nM Eu-labeled compound 11, SU.86.86 cells, 1 h 37° C.; read-out: TLR2 Binding Affinity (Ki)
Procedure: Europium Time-Resolved Fluorescence (TRF) binding assays were performed as described in Handle et al. with slight modifications using SU.86.86 cells plated in 96-well black plates with white opaque wells (PerkinElmer) (Handl et al., Lanthanide-based time-resolved fluorescence of in cyto ligand-receptor interactions. Anal Biochem 2004, 330(2):242-50; Handl et al., Development of a lanthanide-based assay for detection of receptor-ligand interactions at the delta-opioid receptor. Anal Biochem 2005, 343(2):299-307; Josan et al., Solid-phase synthetic strategy and bioevaluation of a labeled delta-opioid receptor ligand Dmt-Tic-Lys for in vivo imaging. Org Lett 2009, 11(12):2479-82). Cells were grown in the 96-well plates for 2 days reaching approximately 80% confluency. Competition binding assays were performed to test the TLR2 binding specificity of the test ligand using SU.86.86 cells. On the day of the experiment, the cell culture media was aspirated and 50 μL of nonlabeled test ligand was added in a series of decreasing concentrations (1 μM to 0.01 nM) followed by 50 μL of the competing Eu-labeled ligand 11 (Huynh et al., Novel Toll-like Receptor 2 Ligands for Targeted Pancreatic Cancer Imaging and Immunotherapy. J Med Chem 2012) at a fixed concentration of 90 nM. Cells were incubated with labeled and unlabeled ligands for 1 h at 37° C. Following incubation, cells were washed three times to remove unbound ligand. Next, 100 μL of DELFIA Enhancement Solution (PerkinElmer) was added to each well. Cells were incubated for 30 min at 37° C. prior to reading. The plates were read on PerkinElmer VICTOR X4 Multilabel reader using the standard Europium TRF protocol. To determine the mean statistical analysis was performed using GraphPad Prism software. Binding of the monoacyl TLR2 ligand (compound 14 of Table 2) was tested using the (Eu)DTPA chelate version of the diacyl TLR2 ligand (compound 11 used in Huynh et al, Id.) in a time-resolved fluorescence competition binding assay. SU.86.86 pancreatic cells with endogenous expression of TLR2 were used for the assay.
Target sequence in this assay (O60603 21-784): as above

[3] = system: TLR2 expressing human pancreatic tumor xenografts (SU.86.86 cells); experiment: In vivo TLR2 selectivity (blocking) fluorescence imaging; design: species or system nude mice
Procedure: Female athymic nude mice 6-8 weeks old (Harlan) bearing human pancreatic tumor xenografts of SU.86.86 cells on the right flank were used. Mouse weights and tumor volumes were determined using caliper measurements and the formula: volume (mm3)=(length×width^2)/2. Images were acquired when the tumors reached an average size of 500 mm^3. For the blocked group, a co-injection of 100 nmol/kg of the fluorescently labeled Compound 16 plus 2 μmol/kg Pam2CSK4 (a 20-fold excess) was administered via tail vein injection; for the unblocked group, 100 nmol/kg Compound 16 was administered. Fluorescence images were acquired at time 0 and 24 h using the Caliper Xenogen IVIS200 system (PerkinElmer) with the 710-760 nm excitation and 810-875 nm emission filter set. The fluorescence was quantified using Living Image software, in which the quantified signals were corrected for both instrument and mouse background subtractions. The quantified fluorescence was then plotted using GraphPad Prism software and underwent statistical analysis using Student's t-test.

TLR2 [4] = molecular target: T1, TLR2; conditions: Huynh et al.; read-out: binding affinity (Ki); cited from earlier work
Target sequence in this assay (O60603 21-784, species assumed): as the sequence (O60603 21-784) above

SU.86.86 cells = experiment: Cytotoxicity assay (Dojindo CCK8 Kit); format: cell-based, human; conditions: 24 hours, 21 to 2690 nM
Procedure: SU.86.86 were treated with Compound 16 for 24 hours over a range of concentrations (40 to 512 ng/mL corresponding to 21 to 2690 nM). Pam2CSK4 was added to SU.86.86 for 24 hours over the same range of concentrations (40 to 512 ng/mL). Three different experiments were performed in triplicate (n≥3). Data were analyzed with GraphPad Prism software.

pEC50 (TLR2 [1]; 0.001 ng/mL to 10 μg/mL, read-out: EC50, TLR2 agonistic activity): 6.17 | agonist activity compared to TLR2 agonist controls (Pam2CSK4, Pam3CSK4, HKLM) (TLR2 [1]): significantly less agonist potency | pKi (TLR2 [2]): 7.66
Compound: CCCCCCCCCCCCCCCC(=O)OCCSC[C@H](NC(=O)COCC(=O)NCCCOCCOCCOCCCNC(C)=O)C(=O)NCC(=O)N[C@H](CO)C(=O)NCCCOCCOCCOCCCNC(=O)COCC(N)=O [Compound 14, Ac-Pego-Cys(S-[palmitoyloxyethyl])-Gly-DSer-PEGO-NH2]

Compound: CCCCCCCCCCCCCCCC(=O)OCCSC[C@H](NC(=O)COCC(=O)NCCCOCCOCCOCCCNC(=O)c1ccc(C2=C(/C=C/C3=[N+](CCC)c4ccccc4C3(C)C)CCC/C2=C\C=C2\N(CCC)c3ccccc3C2(C)C)cc1)C(=O)NCC(=O)N[C@H](CO)C(=O)NCCCOCCOCCOCCCNC(=O)COCC(N)=O [Compound 16, IR780-Pego-Cys(S-[palmitoyloxyethyl])-Gly-DSer-PEGO-NH2]
pIC50 (TLR2 [1]; 0.001 ng/mL to 10 μg/mL, read-out: IC50, inhibition of TLR2 agonistic activity of Pam2CSK4): 6.44 | agonist activity compared to TLR2 agonist controls (Pam2CSK4, Pam3CSK4, HKLM) (TLR2 [1]): significant decrease in agonist response | agonist activity compared to TLR2 agonist controls (Pam2CSK4, Pam3CSK4, HKLM) (TLR2 [1]; listed as compound 16): complete loss in agonist activity | pKi (TLR2 [2]): 7.80 | mean tumor fluorescence, unblocked tumor/blocked tumor ([3]; 100 nmol/kg i.v., blocked with 2 μmol/kg Pam2CSK4 (20-fold excess), 24 h): 2.67 fold | tumor fluorescence in blocked versus unblocked group ([3]; 100 nmol/kg i.v., blocked with 2 μmol/kg Pam2CSK4, 24 h post-injection): significant reduction in the ex vivo fluorescence signal; also recorded: significant reduction in the tumor fluorescence | tumor fluorescence signal by in vivo imaging ([3]; 24 h post-injection): retention of fluorescence signal in the tumor

pKi (TLR2 [2]): 7.04
Compound: CCCCCCCCCCCCCCCC(=O)OC[C@H](CSC[C@H](NC(=O)COCC(=O)NCCCOCCOCCOCCCNC(C)=O)C(=O)NCC(=O)N[C@H](CO)C(=O)NCCCOCCOCCOCCCNC(=O)COCC(N)=O)OC(=O)CCCCCCCCCCCCCCC [compound 10, reference compound]
pKi (TLR2 [4]): 7.62

Compound: Pam2CSK4 [reference compound]
cell viability (SU.86.86 cells): cell viability decreases at higher concentrations past 336 nM
